Results: patent US20090304810A1, “Composition and method for enhanced sanitation and oxidation of aqueous systems” (priority 2005, published 2009)
Values belong to the compound of their own block, whether it stands above or below them.

Legend:
planktonic algae = assay: Algae destruction in outdoor pool; format: cell-based; settings: same pool system, opening procedure, 500 lbs
Method: In an outdoor 360,000 gallon pool contaminated with planktonic algae, 200 lbs of the cobalt monopersulfate composition comprising 99.3 wt % Potassium monopersulfate, 0.5 wt % Magnesium Carbonate, and 0.2 wt % Cobalt Acetate as previously disclosed was added to the system by broadcasting. 40 pounds of soda ash was added to neutralize excess acidity, and the ORP controller was set at 780 mV.
The ORP was consistently achieving 780 mV with 2.0-2.5 ppm of free chlorine.
For comparison purposes, the same pool system during the opening procedure was treated with 500 lbs of calcium hypochlorite and allowed to circulate for 7 days before obtaining the water clarity and being allowed to open to swimmers.

Catalyst precipitation = format: physicochemical
Method: 20 grams of potassium monopersulfate, 0.1 grams cuprous chloride and 80 grams distilled water was added to a 250 ml beaker and mixed on a magnetic stirrer until dissolved. 1 gram of solution was carefully measured and diluted with 99 grams of distilled water. The diluted sample was treated with sodium bisulfite to remove residual monopersulfate, the pH was then adjusted to 7.3 using a diluted solution of sodium hydroxide. The resulting clear solution was tested using a HACH Company Method 8506 bicinchoninate-powder pillow test procedure and a DR-2000 spectrophotometer. The resulting copper level was measured and corrected compensate for the dilution. The final result being 4.9 ppm as Cu.
A second 1-gram sample from the original solution was neutralized with sodium bisulfite, then treated with 2-grams of 0.1 wt % alum solution to achieve approximately 20 ppm as alum in the diluted solution. The pH was adjust with dilute sodium hydroxide to achieve a pH of approximately 7.3, mixed for about 5 minutes, then allowed to settle in a graduated cylinder. 25 ml of clear water was decanted and tested for copper, resulting a value of 0.78 ppm as Cu.

Compound: [Ca+2].[O-]Cl.[O-]Cl [calcium hypochlorite]
circulation time before obtaining water clarity (planktonic algae): 7 days

copper level (Catalyst precipitation; no alum, 1:99 diluted, pH 7.3, monopersulfate removed): 4.9 ppm as Cu
Compound: [Cl][Cu] [cuprous chloride]

copper level in decanted clear water (Catalyst precipitation; approximately 20 ppm alum, pH approximately 7.3, mixed about 5 minutes, settled): 0.78 ppm as Cu
Compound: alum
